This note sets out measurements from patent EP4711366A1, “PYRIMIDO MACROHETEROCYCLIC COMPOUND AS WEE1-YES DUAL-TARGET INHIBITOR AND USE THEREOF” (Mindrank AI Ltd., priority 2023, dated 2024).

Test [1] concerns A427 human lung cancer cells. Nature of the test: In vivo efficacy study against A427 tumors (subcutaneous tumor-bearing model). On the set-up: species or system BALB/c nude mice. Conditions: for Relative tumor inhibition rate (%) Day 28 / Relative tumor volume Day 28: PO. An excerpt:
(§1) A427 human lung cancer cells were subcultured and expanded in an MEM culture medium containing 10% FBS. BALB/c nude mice aged 6-8 weeks were taken and each subcutaneously injected with 5 × 10^6 cells to establish a tumor-bearing model. The tumor volume was monitored, and when the tumor volume reached about 150 mm^3, the animals were randomized into 5 groups according to body weight and tumor volume. The animals were given, by oral gavage, the vehicle or compounds to be tested (ZN-c3 and IE) once daily for a total of 28 days. During the period of administration, the tumor volume and the animal body weight were measured twice a week, and the animals' states were observed daily. At the endpoint, the animals were euthanized with carbon dioxide, and the subcutaneous tumors were isolated and weighed.
(§2) The data calculation formulae are shown below: The tumor volume (TV) was calculated using the formula 1/2×axb^2, where a and b represent the length and width measurements of the tumor, respectively.
(§3) The tumor growth inhibition rate (%TGITV) was calculated using the formula (1 - TVT/TVC) × 100%, where TVc represents the average tumor volume of the negative control group, and TVT represents the average tumor volume of the treatment group.
(§4) The relative tumor volume (RTV) was calculated using the formula Vt/V0, where V0 represents the tumor volume at the time of grouping, and Vt represents the tumor volume at each measurement.

Test [2] concerns SW620 human colon cancer cells. Nature of the test: In vivo efficacy study against SW620 tumors (subcutaneous tumor-bearing model). Set-up: species or system BALB/c nude mice. The following applies: for Relative tumor inhibition rate (%) Day 21 / Relative tumor volume Day 21: PO, QD×21.
Excerpt: as §1, with “SW620 human colon” for “A427 human lung”, “SW620 human colon cancer cells” for “A427 human lung cancer cells”, “in an L-15 culture medium” for “in an MEM culture medium”, “injected with 1 × 10^6” for “injected with 5 × 10^6”, “(ZN-c3 and compound IE) once” for “(ZN-c3 and IE) once”, “total of 21 days. During” for “total of 28 days. During”
as §2, §3, §4

A further test concerns the target Wee1 kinase (Homo sapiens, UniProt P30291). Nature of the test: WEE1 protein kinase inhibitory activity assay (ADP-GLO luminescence). It is filed as biochemical. Conditions: for IC50: Wee1 10 ng/well, ATP 10 µM, 3 h, 37 °C. On the procedure: The influence of the compound MRANK-106 of the present disclosure on the kinase activity of Weel was assessed using an in vitro kinase reaction system.
Table 2-1. Information about reagents and consumables
① 1× kinase buffer: A 5× kinase buffer was diluted with ddH2O to make a 1× kinase buffer. Table 2-3. The reagent components added to the 1× kinase buffer
③ 5× enzyme working solution: The optimization of the enzyme concentration had been completed in previous work, and the concentration of the reagent used in the screening is shown in Table 2-4. A 5× enzyme working solution of the enzyme was formulated using the 1× kinase buffer.
④ Compound formulation: A 10 mM mother liquor was formulated using DMSO, aliquoted, and then stored at -20 °C. Immediately before use, the mother liquor was thawed, diluted with DMSO to 1 mM, serially diluted 4-fold to 10 concentration points, and then 40-fold diluted with the 1× kinase buffer to give a 2.5× working solution. Table 2-4. The experimental conditions for the kinase activity assay
After the above reagents were formulated and equilibrated to room temperature, 4 µL of the diluted solution of the compound to be tested and 2 µL of the formulated enzyme solution were added to reaction wells. After shaking and centrifugation, the plate was incubated at room temperature for 15 min, and 4 µL of the ATP solution was then added to start a kinase reaction. After 3 h of reaction at 37 °C, 10 µL of an ADP-GLO reagent was added. After thorough mixing, the mixture was left to react at room temperature for 40 min, and 20 µL of a detection reagent was then added. After 30 min of reaction at room temperature, the luminescence signals were detected using a SpectraMax L instrument. Two independent duplicate assays were performed. The inhibition rate of each well was calculated based on all activity wells and background signal wells, with an average calculated for duplicate wells. Meanwhile, the inhibition rate was plotted using the professional graphing and analysis software PRISM 9.0, and the IC50 was calculated.
The inhibition rates of the compounds to be tested against the kinase activity of Wee1 were calculated using the following formula: Inhibition rate% = (Lumvehicle−Lumcompound)/(Lumvehicle−Lumblank) × 100% [formula] • Lumcompound: the luminescence of the sample treatment groups • Lumvehicle: the luminescence of the solvent control group • Lumblank: the luminescence of the blank group
On the technique in general: ADP-Glo turns the ADP formed in a reaction into a luminescent signal.

Test [3] has as its system Human ovarian cancer OVCAR-3 cells. Briefly: In vivo efficacy study against OVCAR-3 tumors (subcutaneous tumor-bearing model). Set-up: species or system BALB/c nude mice. The following applies: for Relative tumor inhibition (%) Day 28 / Relative tumor volume Day 28: PO. On the procedure:
as §1, with “Human ovarian” for “A427 human lung”, “cancer OVCAR-3” for “cancer”, “RPMI-1640” for “MEM”, “20% FBS and 0.01 mg/mL bovine insulin.” for “10% FBS.”
as §2, §3, §4

Chain of Wee1 kinase (P30291 whole entry): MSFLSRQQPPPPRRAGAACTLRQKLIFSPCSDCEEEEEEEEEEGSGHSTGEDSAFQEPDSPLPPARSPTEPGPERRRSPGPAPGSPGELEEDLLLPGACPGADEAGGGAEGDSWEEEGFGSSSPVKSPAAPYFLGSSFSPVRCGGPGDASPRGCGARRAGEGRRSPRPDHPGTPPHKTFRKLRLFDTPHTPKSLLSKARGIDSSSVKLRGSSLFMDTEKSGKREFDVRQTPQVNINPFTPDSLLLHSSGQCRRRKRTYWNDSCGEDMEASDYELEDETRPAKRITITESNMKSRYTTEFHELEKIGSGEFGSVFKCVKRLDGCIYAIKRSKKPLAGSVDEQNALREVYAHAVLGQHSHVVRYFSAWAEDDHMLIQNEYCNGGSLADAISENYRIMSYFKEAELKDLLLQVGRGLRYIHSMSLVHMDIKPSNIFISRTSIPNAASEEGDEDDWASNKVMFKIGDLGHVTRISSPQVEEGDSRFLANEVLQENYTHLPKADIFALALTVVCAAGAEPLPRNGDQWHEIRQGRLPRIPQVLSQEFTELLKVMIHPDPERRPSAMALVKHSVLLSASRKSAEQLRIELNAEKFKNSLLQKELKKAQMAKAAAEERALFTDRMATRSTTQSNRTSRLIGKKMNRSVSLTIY

For the compound `Cc1cc(Nc2ncc3c(=O)n4n(c3n2)-c2cccc(n2)[C@](C)(O)CCC=CC4)ccc1OC1CCN(C)CC1` (stereo in doubt) [Compound IE, (R,Z)-12-hydroxy-12-methyl-2-((3-methyl-4-((1-methylpiperidin-4-yl)oxy)phenyl)amino)-7,10,11,12-tetrahydro-5H-13,17-(azeno)pyrimido[4',5':3,4]pyrazolo[1,2-a] [1,2]diazacyclotridecin-5-one], the “Relative tumor inhibition rate (%) Day 28” value in test [1] (30mg/kg, QD×28) was found to be 60.81%; in test [1] (80/60 mg/kg, QD × 28), 99.75%. For the same compound, the “Relative tumor volume Day 28” value is 2.41 in test [1] (30mg/kg, QD×28); 0.02 in test [1] (80/60 mg/kg, QD × 28); 3.16 in test [3] (20 mg/kg, QD × 28); 0.94 in test [3] (40 mg/kg, QD × 28); 0.38 in test [3] (80/60 mg/kg, QD × 28). Moreover, the “activity in inhibiting tumor growth in the A427 tumor model compared with ZN-c3” value in test [1] (comparison in words) is on record as “higher activity than the reference molecule ZN-c3”. Besides, the results for the “Relative tumor inhibition rate (%) Day 21” value in test [2] (30mg/kg) and in test [2] (80mg/kg) were 38.18% and 78.38%, respectively. Also, the “Relative tumor volume Day 21” value in test [2] (30mg/kg) is reported as 7.31; in test [2] (80mg/kg), 2.57. The “activity in inhibiting tumor growth in the SW620 tumor model compared with ZN-c3” value in test [2] (comparison in words) was “higher activity than the reference molecule ZN-c3”. For the same compound, the IC50 (usually the concentration that gives 50% inhibition) against Wee1 kinase was 7.8 nM. Moreover, the “inhibition of the Weel target (in words)” value against Wee1 kinase (summary statement on the assay results) is reported as “strongly inhibited”. Further, the “Relative tumor inhibition (%) Day 28” value in test [3] (20 mg/kg, QD × 28) is on record as 40.51%; in test [3] (40 mg/kg, QD × 28), 81.11%; in test [3] (80/60 mg/kg, QD × 28), 92.69%. In addition, in test [3] (comparison in words), the “activity in inhibiting tumor growth in the OVCAR-3 tumor model compared with ZN-c3” value is given as “significantly better activity than ZN-c3”.

Take `C=CCn1c(=O)c2cnc(Nc3ccc(N4CCN(C)CC4)cc3)nc2n1-c1ccc2c(n1)C(O)(CC)CC2` (stereo not drawn) [ZN-c3, reference compound]: in test [1] (30mg/kg, QD×28), the “Relative tumor inhibition rate (%) Day 28” value was found to be 16.17% and the “Relative tumor volume Day 28” value is on record as 5.03. Besides, in test [1] (80mg/kg, QD×28), the “Relative tumor inhibition rate (%) Day 28” value was 48.93% and the “Relative tumor volume Day 28” value came out at 3.12. Also, in test [2] (30mg/kg), the “Relative tumor inhibition rate (%) Day 21” value turned out to be 28.24% and the “Relative tumor volume Day 21” value is 8.57. Moreover, in test [2] (80mg/kg), the “Relative tumor inhibition rate (%) Day 21” value was found to be 36.78% and the “Relative tumor volume Day 21” value stood at 7.94. This compound also had an IC50 against Wee1 kinase of 5.6 nM. Moreover, in test [3] (100mg/kg, QD×28), the “Relative tumor inhibition (%) Day 28” value is on record as 61.10% and the “Relative tumor volume Day 28” value is listed as 2.01.
